# Laboratory results reported in patent US20260286396A1, “AXL KNOCK OUT CAR T CELLS AND METHODS FOR USE THEREOF” (priority 2023, published 2026).
# Tested on: CART19 cells
# Assay: RNA sequencing of CART19 cells with Ingenuity pathway analysis (pathways, upstream regulators)
# Format: cell-based, human
# Settings: CART19+JeKo-1, 30 nM TP-0903 vs vehicle, 24 h
# Experimental: CART19 cells were isolated using CD4 and CD8 microbeads to […] the JeKo-1 target cells; this isolation step was performed twice to eliminate the possible contamination of JeKo-1 cells. RNA was isolated from the CART19 cells using QIAGEN RNEASY® Plus Mini Kit. RNA was further treated with DNase I (QIAGEN) and purified using RNA Clean & Concentrator (Zymo Research). […] The fastq files were viewed in FastQC to check for quality (Cox et al., Mol Ther., 29 (4): 1529-1540, 2020). After verifying the lack of adapter sequences with FastQC, Cutadapt (Martin, EMBnet, 17:10-12, 2011) was used to filter for reads greater than 32 base pairs. Output files were re-checked for quality using FastQC. The latest human reference genome (GRCh38.p13) was downloaded from NCBI. Genome index files were generated using STAR (Cox et al. 2020, supra, and Dobin et al., Bioinformatics, 29:15-21, 2012). Paired end reads from fastq files were mapped to the genome for each condition. HTSeq was used to generate expression counts for each gene (Cox et al. 2020, supra; and Putri et al., Bioinformatics, 38:2943-2945, 2022). […] The disruption efficiency of the CRISPR/Cas9 GM-CSF knockout was determined using targeted sequencing through PCR and TIDE analysis (software available at tide.nki.nl) as described elsewhere (Sakemura et al. 2021, supra).
# RNA sequencing of CART19 cells was then performed. […] Data were analyzed with the use of QIAGEN Ingenuity Pathway Analysis (IPA) (digitalinsights.qiagen.com/IPA; Krämer et al., Bioinformatics 30 (4): 523-530, 2014).
smiles,measurement,value
"CN1CCN(Cc2ccc(Nc3ncc(Cl)c(Nc4ccccc4S(=O)(=O)N(C)C)n3)cc2)CC1 [TP-0903, Dubermatinib]",ABCG1 Expr Log Ratio,−0.301
same,ADORA2A Expr Log Ratio,0.629
same,ADRA1B Expr Log Ratio,−0.268
same,AGPAT2 Expr Log Ratio,0.051
same,ALDH2 Expr Log Ratio,−0.892
same,APP Expr Log Ratio,0.132
same,ARHGAP5 Expr Log Ratio,0.025
same,ARNT Expr Log Ratio,−0.009
same,ATF3 Expr Log Ratio,−0.209
same,ATF4 Expr Log Ratio,−0.52
same,BCAP31 Expr Log Ratio,0.118
same,BCL3 Expr Log Ratio,0.097
same,BCL6 Expr Log Ratio,0.021
same,BMP7 Expr Log Ratio,−0.942
same,BMP10 Expr Log Ratio,−1.585
same,BTK Expr Log Ratio,−0.323
same,C3 Expr Log Ratio,0.511
same,CALCA Expr Log Ratio,−1.865
same,CCND1 Expr Log Ratio,−0.129
same,CCR3 Expr Log Ratio,−0.728
same,CD2 Expr Log Ratio,0.318
same,CD5 Expr Log Ratio,0.33
same,CD28 Expr Log Ratio,0.407
same,CD38 Expr Log Ratio,−0.087
same,CD40LG Expr Log Ratio,0.131
same,CD44 Expr Log Ratio,0.428
same,CD48 Expr Log Ratio,0.067
same,CD274 Expr Log Ratio,−0.506
same,COMMD1 Expr Log Ratio,0.174
same,DUSP10 Expr Log Ratio,0.211
same,EBF1 Expr Log Ratio,−0.235
same,EDN1 Expr Log Ratio,−0.099
same,EIF2AK4 Expr Log Ratio,−0.2
same,EPX Expr Log Ratio,−0.176
same,ERBB2 Expr Log Ratio,−0.057
same,FHL2 Expr Log Ratio,0.639
same,FMR1 Expr Log Ratio,0.099
same,FYN Expr Log Ratio,0.259
same,GAS5-AS1 Expr Log Ratio,−0.022
same,GNA14 Expr Log Ratio,−2.841
same,HAVCR1 Expr Log Ratio,−0.121
same,IGF1 Expr Log Ratio,−0.149
same,IGF1R Expr Log Ratio,−0.155
same,IKBKB Expr Log Ratio,−0.036
same,IKZF2 Expr Log Ratio,−0.318
same,IL4R Expr Log Ratio,0.093
same,IL10 Expr Log Ratio,−0.008
same,IL15 Expr Log Ratio,0.191
same,IL18 Expr Log Ratio,0.03
same,IL21 Expr Log Ratio,−0.452
same,INSIG1 Expr Log Ratio,−0.836
same,IRF4 Expr Log Ratio,−0.587
same,ITGB2 Expr Log Ratio,0.114
same,KDM1A Expr Log Ratio,0.09
same,KRAS Expr Log Ratio,0.11
same,LEF1 Expr Log Ratio,0.105
same,LGALS3 Expr Log Ratio,−0.014
same,LTA Expr Log Ratio,0.37
same,LTBR Expr Log Ratio,0.08
same,MAPK3 Expr Log Ratio,−0.166
same,MAPK7 Expr Log Ratio,−0.017
same,MBP Expr Log Ratio,0.105
same,MED1 Expr Log Ratio,−0.112
same,MIR-29 Expr Log Ratio,−3.808
same,MYB Expr Log Ratio,−0.03
same,MYDGF Expr Log Ratio,−0.06
same,NFATC1 Expr Log Ratio,0.232
same,NFE2L2 Expr Log Ratio,0.172
same,NFIL3 Expr Log Ratio,−0.13
same,NFKBIA Expr Log Ratio,0.173
same,NPAT Expr Log Ratio,−0.021
same,NR4A2 Expr Log Ratio,0.982
same,NREP Expr Log Ratio,−0.21
same,PAF1 Expr Log Ratio,0.135
same,PDCD1 Expr Log Ratio,0.967
same,POU2F1 Expr Log Ratio,−0.356
same,PRDM1 Expr Log Ratio,−0.006
same,PRKCZ Expr Log Ratio,0.36
same,PTEN Expr Log Ratio,1.201
same,PTPRJ Expr Log Ratio,0.044
same,RAD21L1 Expr Log Ratio,0.844
same,RAMP1 Expr Log Ratio,−0.296
same,RRP1B Expr Log Ratio,−0.087
same,RXRA Expr Log Ratio,−0.75
same,SATB2 Expr Log Ratio,−0.715
same,SIRT6 Expr Log Ratio,−0.028
same,SMAD2 Expr Log Ratio,−0.395
same,SMAD7 Expr Log Ratio,0.057
same,SMC1B Expr Log Ratio,−0.146
same,SNCA Expr Log Ratio,1.134
same,SORL1 Expr Log Ratio,0.047
same,SPI1 Expr Log Ratio,−0.215
same,SREBF1 Expr Log Ratio,−0.191
same,SREBF2 Expr Log Ratio,−0.048
same,STAG3 Expr Log Ratio,−0.19
same,STARD7 Expr Log Ratio,−0.076
same,SUCNR1 Expr Log Ratio,−1.022
same,TEAD3 Expr Log Ratio,−0.396
same,TERT Expr Log Ratio,−0.599
same,TGFB1 Expr Log Ratio,−0.094
same,TGFB3 Expr Log Ratio,0.178
same,TGFBR2 Expr Log Ratio,0.18
same,TLR2 Expr Log Ratio,0.013
same,TLR7 Expr Log Ratio,−1.275
same,TNFRSF4 Expr Log Ratio,0.263
same,TNFSF15 Expr Log Ratio,1.42
same,TPH1 Expr Log Ratio,0.019
same,TRAF3 Expr Log Ratio,0.022
same,WNT5B Expr Log Ratio,−0.491
same,YAP1 Expr Log Ratio,−0.546
same,upstream regulator ABCG1 Activation Z-Score,1.387
same,upstream regulator ADORA2A Activation Z-Score,−0.245
same,upstream regulator AGPAT2 Activation Z-Score,1
same,upstream regulator ALDH2 Activation Z-Score,1.432
same,upstream regulator APP Activation Z-Score,−2.018
same,upstream regulator APP Predicted Activation State,inhibited
same,upstream regulator ARNT Activation Z-Score,−1.795
same,upstream regulator ATF3 Activation Z-Score,−1.227
same,upstream regulator ATF4 Activation Z-Score,−2.62
same,upstream regulator ATF4 Predicted Activation State,inhibited
same,upstream regulator BCAP31 Activation Z-Score,−0.968
same,upstream regulator BCL3 Activation Z-Score,−1.353
same,upstream regulator BCL6 Activation Z-Score,0.949
same,upstream regulator BCR (COMPLEX) Activation Z-Score,−1.126
same,upstream regulator BMP7 Activation Z-Score,−1.089
same,upstream regulator BMP10 Activation Z-Score,−0.707
same,upstream regulator BTK Activation Z-Score,−1.091
same,upstream regulator C3 Activation Z-Score,−0.378
same,upstream regulator CALCA Activation Z-Score,0.887
same,upstream regulator CCK Activation Z-Score,0.437
same,upstream regulator CCL2 Activation Z-Score,−1.368
same,upstream regulator CCND1 Activation Z-Score,0.042
same,upstream regulator CD5 Activation Z-Score,−1.732
same,upstream regulator CD28 Activation Z-Score,−1.369
same,upstream regulator CD38 Activation Z-Score,−1.353
same,upstream regulator CD40LG Activation Z-Score,−2.045
same,upstream regulator CD40LG Predicted Activation State,inhibited
same,upstream regulator CD44 Activation Z-Score,−1.835
same,upstream regulator CD274 Activation Z-Score,0.478
same,upstream regulator CG Activation Z-Score,−0.872
same,upstream regulator COMMD1 Predicted Activation State,activated
same,upstream regulator DUSP10 Activation Z-Score,0.392
same,upstream regulator EBF1 Activation Z-Score,−2.182
same,upstream regulator EBF1 Predicted Activation State,inhibited
same,upstream regulator EDN1 Activation Z-Score,−1.02
same,upstream regulator EIF2AK4 Activation Z-Score,−2.395
same,upstream regulator EIF2AK4 Predicted Activation State,inhibited
same,upstream regulator ERBB2 Activation Z-Score,−2.46
same,upstream regulator ERBB2 Predicted Activation State,inhibited
same,upstream regulator ERK1/2 Activation Z-Score,−0.915
same,upstream regulator ERK Activation Z-Score,−2.029
same,upstream regulator ERK Predicted Activation State,inhibited
same,upstream regulator FHL2 Activation Z-Score,−0.64
same,upstream regulator FMR1 Activation Z-Score,1.976
same,upstream regulator FYN Activation Z-Score,−1.446
same,upstream regulator HAVCR1 Activation Z-Score,0.104
same,upstream regulator HNF1A-AS1 Activation Z-Score,−2
same,upstream regulator HNF1A-AS1 Predicted Activation State,inhibited
same,upstream regulator ID3 Activation Z-Score,1.671
same,upstream regulator IFN ALPHA/BETA Activation Z-Score,−1.195
same,upstream regulator IGF1 Activation Z-Score,−1.148
same,upstream regulator IGF1R Activation Z-Score,−0.652
same,upstream regulator IKBKB Activation Z-Score,−2.146
same,upstream regulator IKBKB Predicted Activation State,inhibited
same,upstream regulator IL1 Activation Z-Score,−1.785
same,upstream regulator IL4R Activation Z-Score,−0.187
same,upstream regulator IL10 Activation Z-Score,1.633
same,upstream regulator IL12 (FAMILY) Activation Z-Score,1.39
same,upstream regulator IL15 Activation Z-Score,−1.117
same,upstream regulator IL18 Activation Z-Score,−0.28
same,upstream regulator IL21 Activation Z-Score,0.183
same,upstream regulator IL27RA Activation Z-Score,2.207
same,upstream regulator IL27RA Predicted Activation State,activated
same,upstream regulator INSIG1 Activation Z-Score,1.495
same,upstream regulator INSULIN Activation Z-Score,−1.452
same,upstream regulator IRF4 Activation Z-Score,0.415
same,upstream regulator ITGB2 Activation Z-Score,−0.128
same,upstream regulator KCNIP3 Activation Z-Score,0.378
same,upstream regulator KDM1A Activation Z-Score,0.351
same,upstream regulator KRAS Activation Z-Score,−0.772
same,upstream regulator LEF1 Activation Z-Score,0.367
same,upstream regulator LGALS3 Activation Z-Score,−0.747
same,upstream regulator LTA Activation Z-Score,−1.763
same,upstream regulator LTB Activation Z-Score,−1.246
same,upstream regulator LTBR Activation Z-Score,−1.664
same,upstream regulator MAPK3 Activation Z-Score,−0.896
same,upstream regulator MAPK7 Activation Z-Score,−0.64
same,upstream regulator MBP Activation Z-Score,0.577
same,upstream regulator MED1 Activation Z-Score,−1.671
same,upstream regulator MIR-29 Activation Z-Score,1.128
same,upstream regulator MIR-450A-5P (AND OTHER MIRNAS W/SEED UUUGCGA) Predicted Activation State,activated
same,upstream regulator MIRLET7 Activation Z-Score,0
same,upstream regulator MLXIPL Predicted Activation State,inhibited
same,upstream regulator MTORC1 Activation Z-Score,−2.087
same,upstream regulator MTORC1 Predicted Activation State,inhibited
same,upstream regulator MYB Activation Z-Score,−1.742
same,upstream regulator NFAT (FAMILY) Activation Z-Score,−2.176
same,upstream regulator NFAT (FAMILY) Predicted Activation State,inhibited
same,upstream regulator NFATC1 Activation Z-Score,−1.4
same,upstream regulator NFE2L2 Activation Z-Score,−1.966
same,upstream regulator NFIL3 Activation Z-Score,−2.2
same,upstream regulator NFIL3 Predicted Activation State,inhibited
same,upstream regulator NFKBIA Activation Z-Score,−0.758
same,upstream regulator NR4A2 Activation Z-Score,0.898
same,upstream regulator NREP Activation Z-Score,0.218
same,upstream regulator NRG1 Activation Z-Score,−1.949
same,upstream regulator P38 MAPK Activation Z-Score,−2.405
same,upstream regulator P38 MAPK Predicted Activation State,inhibited
same,upstream regulator PDCD1 Activation Z-Score,0.055
same,upstream regulator PDX1 Activation Z-Score,0.24
same,upstream regulator POSTN Activation Z-Score,−1
same,upstream regulator PRDM1 Activation Z-Score,0.122
same,upstream regulator PRKCZ Activation Z-Score,−0.167
same,upstream regulator PTEN Activation Z-Score,0.449
same,upstream regulator PTPRJ Activation Z-Score,0
same,upstream regulator RAS Activation Z-Score,−2.375
same,upstream regulator RAS Predicted Activation State,inhibited
same,upstream regulator RXRA Activation Z-Score,1.069
same,upstream regulator SATB2 Activation Z-Score,−0.152
same,upstream regulator SIRT6 Activation Z-Score,0.064
same,upstream regulator SMAD2 Activation Z-Score,−1.681
same,upstream regulator SMAD7 Activation Z-Score,−0.135
same,upstream regulator SNCA Activation Z-Score,−0.246
same,upstream regulator SORL1 Activation Z-Score,−2.714
same,upstream regulator SORL1 Predicted Activation State,inhibited
same,upstream regulator SPI1 Activation Z-Score,−1.174
same,upstream regulator SREBF1 Activation Z-Score,−3.191
